# Measured values: patent US10894770B2, “Fullerene derivative and n-type semiconductor material” (DAIKIN INDUSTRIES, LTD., priority 2015, dated 2021)
# Columns and labels:
# [1] = Solubility measured with a toluene solution (absorbance of the supernatant of a supersaturated solution); format: physicochemical; conditions: room temperature, from absorbance and molar extinction coefficient
# Description: The solubility in toluene at room temperature can be determined from the absorbance in accordance with the Beer-Lambert law. First, a molar extinction coefficient is determined using a fullerene derivative toluene solution of a known concentration. A predetermined amount of the supernatant of a supersaturated fullerene derivative toluene solution is weighed, and the absorbance of this solution is measured. The concentration is calculated from the following equation. C=A/εd wherein C is a concentration; A is an absorbance; ε is a molar extinction coefficient; and d is a cell length for absorbance measurement (1 cm)
# The solubility of each fullerene derivative was calculated from the absorbance measured with an ultraviolet-visible absorptiometer.
# In advance, the absorbance of the fullerene derivatives of a predetermined concentration was measured to determine the molar extinction coefficient of each compound.
# A supersaturated toluene solution of a fullerene derivative was prepared. A predetermined amount of the supernatant of this solution was taken out, and its absorbance was measured.
# From the measured absorbance value and the molar extinction coefficient, the concentration of the supernatant of the supersaturated toluene solution was determined.
# [2] = LUMO level estimated from cyclic voltammetry (CV); format: physicochemical; conditions: for E1/2^1, half-wave potential of the first reduction wave: CV, 3-electrode system, chlorobenzene:acetonitrile=5:1, n-Bu4NPF6 0.1 mol/L; for LUMO: ELUMO=−(E1/2^1+4.8) eV, from CV
# Description: The LUMO level can be measured by a method according to Karakawa et al., Journal of Materials Chemistry A, 2014, vol. 2, p. 20889.
# The LUMO level of the fullerene derivatives obtained in Synthesis Examples and the control compounds was estimated from the measured values in cyclic voltammetry (CV).
# The measurement was performed in accordance with the experiment section in M. Karakawa et al., Journal of Material Chemistry A, 2014, vol. 2, p. 20889. • Measurement Device: BAS CV-50W Voltammetric Analyzer • Measurement Solvent: Chlorobenzene:Acetonitrile=5:1 • Supporting Electrolyte: n-Bu4NPF6 concentration 0.1 mol/L
# The LUMO level is calculated from the half-wave potential E1/2^1 (Fc/Fc^+ benchmark) of the first reduction wave measured by CV (3-electrode system) using the following equation. ELUMO=−(E1/2^1+4.8)ev
compound,measurement,setting,value
CCCCCCC1N(c2ccccc2)C(c2ccccc2)C23c4c5c6c7c8c9c(c%10c%11c2c2c%12c4c4c%13c5c5c7c7c8c8c%14c9c%10c9c%10c%11c2c2c%11c%12c4c4c%12c%13c5c5c7c7c8c8c%14c9c9c%10c2c2c%11c4c4c%12c5c7c5c8c9c2c45)C613 (stereo not drawn) [Compound 1],Solubility in Toluene,[1],0.5%
same,"E1/2^1, half-wave potential of the first reduction wave",[2],−1.16 V vs Fc/Fc^++
same,LUMO,[2],−3.64 eV
CCCCC(CC)CC1N(c2ccccc2)C(c2ccccc2)C23c4c5c6c7c8c9c(c%10c%11c2c2c%12c4c4c%13c5c5c7c7c8c8c%14c9c%10c9c%10c%11c2c2c%11c%12c4c4c%12c%13c5c5c7c7c8c8c%14c9c9c%10c2c2c%11c4c4c%12c5c7c5c8c9c2c45)C613 (stereo not drawn) [Compound 2],Solubility in Toluene,[1],1.0%
same,"E1/2^1, half-wave potential of the first reduction wave",[2],−1.17 V vs Fc/Fc^++
same,LUMO,[2],−3.63 eV
COCCOCCOCC1N(c2ccccc2)C(c2ccccc2)C23c4c5c6c7c8c9c(c%10c%11c2c2c%12c4c4c%13c5c5c7c7c8c8c%14c9c%10c9c%10c%11c2c2c%11c%12c4c4c%12c%13c5c5c7c7c8c8c%14c9c9c%10c2c2c%11c4c4c%12c5c7c5c8c9c2c45)C613 (stereo not drawn) [Compound 3],Solubility in Toluene,[1],0.5%
same,"E1/2^1, half-wave potential of the first reduction wave",[2],−1.17 V vs Fc/Fc^++
same,LUMO,[2],−3.63 eV
CCCCOCC1N(c2ccccc2)C(c2ccccc2)C23c4c5c6c7c8c9c(c%10c%11c2c2c%12c4c4c%13c5c5c7c7c8c8c%14c9c%10c9c%10c%11c2c2c%11c%12c4c4c%12c%13c5c5c7c7c8c8c%14c9c9c%10c2c2c%11c4c4c%12c5c7c5c8c9c2c45)C613 (stereo not drawn) [Compound 4],Solubility in Toluene,[1],0.5%
same,"E1/2^1, half-wave potential of the first reduction wave",[2],−1.17 V vs Fc/Fc^++
same,LUMO,[2],−3.63 eV
CCCCCCC1N(c2ccccc2)C(CC(CC)CCCC)C23c4c5c6c7c8c9c(c%10c%11c2c2c%12c4c4c%13c5c5c7c7c8c8c%14c9c%10c9c%10c%11c2c2c%11c%12c4c4c%12c%13c5c5c7c7c8c8c%14c9c9c%10c2c2c%11c4c4c%12c5c7c5c8c9c2c45)C613 (stereo not drawn) [Compound 8],Solubility in Toluene,[1],7.0%
"C1=CC2=c3ccc4c5ccc6c7ccc8c9ccc%10c%11c%12c%13c%14c(c3c4c3c5c6c4c7c8c(c%119)c%13c4c%143)C23C(c2ccccc2)N(c2ccccc2)CC%123C=%101 (stereo not drawn) [Control Compound 1, reference compound]",Solubility in Toluene,[1],0.3%
same,"E1/2^1, half-wave potential of the first reduction wave",[2],−1.13 V vs Fc/Fc^++
same,LUMO,[2],−3.67 eV
"CCCCCCC1N(c2ccccc2)CC23C4=c5ccc6c7ccc8c9ccc%10c%11ccc%12c%13c(c%14c%15c2c5c6c2c7c8c5c9c%10c(c%13%11)c%14c5c%152)C13C=%12C=C4 (stereo not drawn) [Control Compound 2, reference compound]",Solubility in Toluene,[1],1.8%
same,"E1/2^1, half-wave potential of the first reduction wave",[2],−1.14 V vs Fc/Fc^++
same,LUMO,[2],−3.66 eV
"COC(=O)CCCC1(c2ccccc2)C23c4c5c6c7c8c9c(c%10c%11c2c2c%12c4c4c%13c5c5c7c7c8c8c%14c9c%10c9c%10c%11c2c2c%11c%12c4c4c%12c%13c5c5c7c7c8c8c%14c9c9c%10c2c2c%11c4c4c%12c5c7c5c8c9c2c45)C613 (stereo not drawn) [[60]PCBM, [6,6]-phenyl-C61-butyric acid methyl ester, reference compound]","E1/2^1, half-wave potential of the first reduction wave",[2],−1.13 V vs Fc/Fc^++
same,LUMO,[2],−3.67 eV
